Several values for one entry are separate records, joined by “and”; a condition that tells them apart may be missing. Equal values may be shown once. Entries after “also recorded” stand apart in the source; their conditions may differ.
Tested on: E. coli W3110
Assay: Checkerboard assay with PMBN
Conditions: for Checkerboard well reading (growth), Average values: average of 3 wells; for Checkerboard well reading (growth): single wells (triplicate)

For `O=S(=O)(NC[C@H]1CC[C@@H](c2ccc(-c3ccc(F)nc3)cc2)N1)c1cccc2cnccc12` [LEI-801], the “Checkerboard well reading (growth), Average values” (LEI-801 6.25 µM + PMBN 2 µM) was 0.2823, the “Checkerboard well reading (growth), Average values” (LEI-801 6.25 µM + PMBN 4 µM) was 0.1833 and the “Checkerboard well reading (growth), Average values” (LEI-801 6.25 µM + PMBN 8 µM) was 0.1357. The “Checkerboard well reading (growth), Average values” (LEI-801 6.25 µM + PMBN 16 µM) was 0.1386, the “Checkerboard well reading (growth), Average values” (LEI-801 6.25 µM + PMBN 32 µM) was 0.1521 and the “Checkerboard well reading (growth), Average values” (LEI-801 12.5 µM + PMBN 0 µM) was 0.6968. The “Checkerboard well reading (growth), Average values” (LEI-801 12.5 µM + PMBN 0.5 µM) was 0.5454, the “Checkerboard well reading (growth), Average values” (LEI-801 12.5 µM + PMBN 1 µM) was 0.4004 and the “Checkerboard well reading (growth), Average values” (LEI-801 12.5 µM + PMBN 2 µM) was 0.1564. The “Checkerboard well reading (growth)” value (LEI-801 12.5 µM + PMBN 2 µM) was 0.1441 and 0.1568 and 0.1684, the “Checkerboard well reading (growth), Average values” (LEI-801 12.5 µM + PMBN 4 µM) was 0.1485 and the “Checkerboard well reading (growth)” value (LEI-801 12.5 µM + PMBN 4 µM) was 0.1572. The “Checkerboard well reading (growth), Average values” (LEI-801 12.5 µM + PMBN 8 µM) was 0.1397, the “Checkerboard well reading (growth), Average values” (LEI-801 12.5 µM + PMBN 16 µM) was 0.1401 and the “Checkerboard well reading (growth), Average values” (LEI-801 12.5 µM + PMBN 32 µM) was 0.1472. For the same compound, the “Checkerboard well reading (growth), Average values” (LEI-801 25 µM + PMBN 0 µM) was 0.6592, the “Checkerboard well reading (growth)” value (LEI-801 25 µM + PMBN 0 µM) was 0.7013 and 0.6648 and 0.6113 and the “Checkerboard well reading (growth), Average values” (LEI-801 25 µM + PMBN 0.5 µM) was 0.5495. For the same compound, the “Checkerboard well reading (growth)” value (LEI-801 25 µM + PMBN 0.5 µM) was 0.5605 and 0.5428 and 0.5453, the “Checkerboard well reading (growth), Average values” (LEI-801 25 µM + PMBN 1 µM) was 0.1537 and the “Checkerboard well reading (growth)” value (LEI-801 25 µM + PMBN 1 µM) was 0.153 and 0.1529 and 0.1554. For the same compound, the “Checkerboard well reading (growth), Average values” (LEI-801 25 µM + PMBN 2 µM) was 0.155, the “Checkerboard well reading (growth)” value (LEI-801 25 µM + PMBN 2 µM) was 0.1518 and 0.1536 and 0.1596 and the “Checkerboard well reading (growth), Average values” (LEI-801 25 µM + PMBN 4 µM) was 0.1451. The “Checkerboard well reading (growth)” value (LEI-801 25 µM + PMBN 4 µM) was 0.1525 and 0.1428 and 0.1399, the “Checkerboard well reading (growth), Average values” (LEI-801 25 µM + PMBN 8 µM) was 0.1413 and the “Checkerboard well reading (growth)” value (LEI-801 25 µM + PMBN 8 µM) was 0.1394 and 0.1427 and 0.1418. For the same compound, the “Checkerboard well reading (growth), Average values” (LEI-801 25 µM + PMBN 16 µM) was 0.1492, the “Checkerboard well reading (growth)” value (LEI-801 25 µM + PMBN 16 µM) was 0.1486 and 0.1511 and 0.148 and the “Checkerboard well reading (growth), Average values” (LEI-801 25 µM + PMBN 32 µM) was 0.1528. The “Checkerboard well reading (growth)” value (LEI-801 25 µM + PMBN 32 µM) was 0.1518 and 0.1502 and 0.1563, the “Checkerboard well reading (growth), Average values” (LEI-801 50 µM + PMBN 0 µM) was 0.5341 and the “Checkerboard well reading (growth)” value (LEI-801 50 µM + PMBN 0 µM) was 0.4876 and 0.5464 and 0.5682. The “Checkerboard well reading (growth), Average values” (LEI-801 50 µM + PMBN 0.5 µM) was 0.1519, the “Checkerboard well reading (growth)” value (LEI-801 50 µM + PMBN 0.5 µM) was 0.1573 and 0.1437 and 0.1549 and the “Checkerboard well reading (growth), Average values” (LEI-801 50 µM + PMBN 1 µM) was 0.152. The “Checkerboard well reading (growth)” value (LEI-801 50 µM + PMBN 1 µM) was 0.1515 and 0.1507 and 0.1538, the “Checkerboard well reading (growth), Average values” (LEI-801 50 µM + PMBN 2 µM) was 0.1516 and the “Checkerboard well reading (growth)” value (LEI-801 50 µM + PMBN 2 µM) was 0.15 and 0.1487 and 0.1561. The “Checkerboard well reading (growth), Average values” (LEI-801 50 µM + PMBN 4 µM) was 0.1474, the “Checkerboard well reading (growth)” value (LEI-801 50 µM + PMBN 4 µM) was 0.1453 and 0.1491 and 0.1477 and the “Checkerboard well reading (growth), Average values” (LEI-801 50 µM + PMBN 8 µM) was 0.1653. The “Checkerboard well reading (growth)” value (LEI-801 50 µM + PMBN 8 µM) was 0.1998 and 0.1452 and 0.1509, the “Checkerboard well reading (growth), Average values” (LEI-801 50 µM + PMBN 16 µM) was 0.1513 and the “Checkerboard well reading (growth)” value (LEI-801 50 µM + PMBN 16 µM) was 0.1499 and 0.152 and 0.1519. For the same compound, the “Checkerboard well reading (growth), Average values” (LEI-801 50 µM + PMBN 32 µM) was 0.1507, the “Checkerboard well reading (growth)” value (LEI-801 50 µM + PMBN 32 µM) was 0.1485 and 0.1492 and 0.1546 and the “MIC E. coli + 8 μM PMBN” value (LPS disruption (pharmacological)) was 6.25 µM. The “synergy with PMBN” value (checkerboard) was “potentiates; also recorded: Clear synergy” and the MSC (checkerboard with PMBN, E. coli W3110) was 6.25 µM.

From PMC11374673, “Discovery of isoquinoline sulfonamides as allosteric gyrase inhibitors with activity against fluoroquinolone-resistant bacteria” (Nature Chemistry, 2024)
